# Measured values as given in article PMC11790914, “Chemogenomics for steroid hormone receptors (NR3)” (Communications Chemistry, 2025).
# “And” between values parts separate entries of the source, which are not always exact repeats. Equal values may be shown once.
# Assays:
# HEK293T cells [1] = assay: Cytotoxicity: necrosis induction (red fluorescent dye for permeable plasma membranes); assay type: cell-based; settings: 1 µM, 24 h, necrotic cell count normalized to 0.1% DMSO, single replicates;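 further: compounds applied in DMEM high glucose with 0.1% FCS and 0.1% DMSO, necrotic HEK293T cells counted by red staining of cells whose plasma membranes had become permeable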
# Gal4-VP16 = assay type: cell-based; settings: 1 µM; vs. DMSO ctrl; single replicates n=1-3
# ABL1 = molecular target: T1, ABL1 (Homo sapiens, UniProt P00519); assay: Liability panel screening by DSF: ABL1; assay type: binding; settings: DSF, 20 µM, n=2; read-out: Mean ΔTM ABL1
# T1 construct: made in house
# T1 sequence (P00519 whole entry, species assumed): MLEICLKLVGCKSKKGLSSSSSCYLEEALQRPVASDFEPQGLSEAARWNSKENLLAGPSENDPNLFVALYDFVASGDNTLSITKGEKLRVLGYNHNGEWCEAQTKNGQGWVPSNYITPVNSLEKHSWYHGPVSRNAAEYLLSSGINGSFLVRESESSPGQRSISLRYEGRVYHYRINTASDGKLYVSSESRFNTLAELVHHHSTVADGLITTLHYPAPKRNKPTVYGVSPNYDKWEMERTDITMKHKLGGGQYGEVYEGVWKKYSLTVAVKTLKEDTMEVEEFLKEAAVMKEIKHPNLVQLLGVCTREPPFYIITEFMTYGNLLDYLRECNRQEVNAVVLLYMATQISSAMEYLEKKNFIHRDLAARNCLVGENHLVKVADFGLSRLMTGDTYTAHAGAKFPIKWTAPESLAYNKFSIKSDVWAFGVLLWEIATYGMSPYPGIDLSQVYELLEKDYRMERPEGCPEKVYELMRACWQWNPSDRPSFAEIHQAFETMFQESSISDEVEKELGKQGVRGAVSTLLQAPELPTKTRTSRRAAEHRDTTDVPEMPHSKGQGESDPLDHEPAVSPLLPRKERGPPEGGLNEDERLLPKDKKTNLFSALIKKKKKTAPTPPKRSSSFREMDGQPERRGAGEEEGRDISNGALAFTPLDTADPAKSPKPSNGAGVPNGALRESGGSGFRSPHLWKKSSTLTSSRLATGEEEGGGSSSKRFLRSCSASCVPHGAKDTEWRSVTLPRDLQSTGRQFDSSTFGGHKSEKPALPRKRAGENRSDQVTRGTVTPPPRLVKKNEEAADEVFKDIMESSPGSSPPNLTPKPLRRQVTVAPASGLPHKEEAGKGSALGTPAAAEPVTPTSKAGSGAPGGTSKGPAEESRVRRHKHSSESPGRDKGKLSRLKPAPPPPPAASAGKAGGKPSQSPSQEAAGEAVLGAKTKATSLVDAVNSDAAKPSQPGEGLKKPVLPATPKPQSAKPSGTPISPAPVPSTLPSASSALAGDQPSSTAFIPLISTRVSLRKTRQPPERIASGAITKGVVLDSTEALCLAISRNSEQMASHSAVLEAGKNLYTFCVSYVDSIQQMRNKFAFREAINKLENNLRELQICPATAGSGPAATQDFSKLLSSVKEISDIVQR
# Summary of the method: (§1)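 ∆Tm in K was taken from Boltzmann-fitted unfolding inflection points, run in duplicate with a temperature ramp of 3 °C per minute up to 85 °C. Each recombinant protein (2 µM) was in HEPES 10 mM pH 7.5 and NaCl 500 mM, with SYPRO Orange dye at 1:1000.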
# AURKA = molecular target: T2, AURKA (Homo sapiens, UniProt O14965); assay: Liability panel screening by DSF: AURKA; assay type: binding; settings: DSF, 20 µM, n=2; read-out: Mean ΔTM AURKA
# T2 construct: made in house
# T2 sequence (O14965 1-403): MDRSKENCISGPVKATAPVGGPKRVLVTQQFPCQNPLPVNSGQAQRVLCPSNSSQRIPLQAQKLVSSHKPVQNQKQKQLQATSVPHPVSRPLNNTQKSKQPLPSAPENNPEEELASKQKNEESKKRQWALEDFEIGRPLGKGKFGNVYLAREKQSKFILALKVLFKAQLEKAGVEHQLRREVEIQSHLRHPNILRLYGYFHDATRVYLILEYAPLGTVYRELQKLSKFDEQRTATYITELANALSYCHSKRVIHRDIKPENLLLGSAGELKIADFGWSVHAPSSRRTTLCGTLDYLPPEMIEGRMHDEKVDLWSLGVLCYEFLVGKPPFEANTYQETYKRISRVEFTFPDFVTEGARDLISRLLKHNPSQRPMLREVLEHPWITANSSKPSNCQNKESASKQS
# Summary of the method: as §1
# CDK2 = molecular target: T3, CDK2 (Homo sapiens, UniProt P24941); assay: Liability panel screening by DSF: CDK2; assay type: binding; settings: DSF, 20 µM, n=2; read-out: Mean ΔTM CDK2
# T3 construct: made in house
# Summary of the method: as §1
# FGFR3 = molecular target: T4, FGFR3 (Homo sapiens, UniProt P22607); assay: Liability panel screening by DSF: FGFR3; assay type: binding; settings: DSF, 20 µM, n=2; read-out: Mean ΔTM FGFR3
# T4 construct: made in house
# T4 sequence (P22607 23-806, species assumed): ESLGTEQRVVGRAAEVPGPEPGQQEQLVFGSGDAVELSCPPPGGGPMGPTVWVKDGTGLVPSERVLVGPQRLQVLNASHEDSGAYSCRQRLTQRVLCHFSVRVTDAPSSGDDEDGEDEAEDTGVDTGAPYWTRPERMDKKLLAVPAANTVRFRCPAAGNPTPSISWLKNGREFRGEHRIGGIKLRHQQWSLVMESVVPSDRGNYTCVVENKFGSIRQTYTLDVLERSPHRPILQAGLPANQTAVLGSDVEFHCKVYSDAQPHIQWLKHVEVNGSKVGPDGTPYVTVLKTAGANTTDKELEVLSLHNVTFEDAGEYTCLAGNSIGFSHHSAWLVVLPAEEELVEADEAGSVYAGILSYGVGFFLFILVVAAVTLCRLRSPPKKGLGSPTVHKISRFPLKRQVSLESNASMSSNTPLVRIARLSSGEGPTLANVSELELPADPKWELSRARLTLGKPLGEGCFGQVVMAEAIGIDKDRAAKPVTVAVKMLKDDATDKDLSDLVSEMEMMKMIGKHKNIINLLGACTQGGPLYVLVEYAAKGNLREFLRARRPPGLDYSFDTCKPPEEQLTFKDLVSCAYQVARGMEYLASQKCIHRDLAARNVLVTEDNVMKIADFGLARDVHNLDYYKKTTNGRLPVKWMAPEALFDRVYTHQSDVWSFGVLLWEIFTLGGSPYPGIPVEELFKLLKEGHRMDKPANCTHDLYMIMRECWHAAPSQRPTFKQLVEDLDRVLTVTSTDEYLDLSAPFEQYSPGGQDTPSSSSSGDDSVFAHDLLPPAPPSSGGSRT
# Summary of the method: as §1
# GSK3B = molecular target: T5, GSK3B (Homo sapiens, UniProt P49841); assay: Liability panel screening by DSF: GSK3B; assay type: binding; settings: DSF, 20 µM, n=2; read-out: Mean ΔTM GSK3B
# T5 construct: made in house
# T5 sequence (P49841 whole entry, species assumed): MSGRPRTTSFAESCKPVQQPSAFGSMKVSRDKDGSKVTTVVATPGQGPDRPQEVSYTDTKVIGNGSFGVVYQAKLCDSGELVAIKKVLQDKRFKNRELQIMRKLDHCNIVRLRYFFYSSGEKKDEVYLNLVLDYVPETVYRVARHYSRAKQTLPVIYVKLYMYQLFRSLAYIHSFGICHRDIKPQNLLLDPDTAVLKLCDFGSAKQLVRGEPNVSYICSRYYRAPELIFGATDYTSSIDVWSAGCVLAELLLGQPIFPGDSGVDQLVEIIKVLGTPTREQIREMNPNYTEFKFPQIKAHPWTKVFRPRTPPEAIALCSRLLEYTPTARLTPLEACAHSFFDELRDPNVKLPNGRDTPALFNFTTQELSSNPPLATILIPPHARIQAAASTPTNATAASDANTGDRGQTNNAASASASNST
# BRD4 = molecular target: T6, BRD4 (Homo sapiens, UniProt O60885); assay: Liability panel screening by DSF: BRD4; assay type: binding; settings: DSF, 20 µM, n=2; read-out: Mean ΔTM BRD4
# T6 construct: This panel comprised ten highly ligandable kinases and bromodomains; made in house
# Summary of the method: as §1
# BRPF1 = molecular target: T7, BRPF1 (Homo sapiens, UniProt P55201); assay: Liability panel screening by DSF: BRPF1; assay type: binding; settings: DSF, 20 µM, n=2; read-out: Mean ΔTM BRPF1
# T7 construct: This panel comprised ten highly ligandable kinases and bromodomains; made in house
# T7 sequence (P55201 628-732 limits assumed): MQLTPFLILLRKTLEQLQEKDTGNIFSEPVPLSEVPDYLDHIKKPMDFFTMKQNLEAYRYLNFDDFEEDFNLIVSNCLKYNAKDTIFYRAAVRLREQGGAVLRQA
# Summary of the method: as §1
# CSNK1D = molecular target: T8, CSNK1D (Homo sapiens, UniProt P48730); assay: Liability panel screening by DSF: CSNK1D; assay type: binding; settings: DSF, 20 µM, n=2; read-out: Mean ΔTM CSNK1D
# T8 construct: made in house
# T8 sequence (P48730 whole entry, species assumed): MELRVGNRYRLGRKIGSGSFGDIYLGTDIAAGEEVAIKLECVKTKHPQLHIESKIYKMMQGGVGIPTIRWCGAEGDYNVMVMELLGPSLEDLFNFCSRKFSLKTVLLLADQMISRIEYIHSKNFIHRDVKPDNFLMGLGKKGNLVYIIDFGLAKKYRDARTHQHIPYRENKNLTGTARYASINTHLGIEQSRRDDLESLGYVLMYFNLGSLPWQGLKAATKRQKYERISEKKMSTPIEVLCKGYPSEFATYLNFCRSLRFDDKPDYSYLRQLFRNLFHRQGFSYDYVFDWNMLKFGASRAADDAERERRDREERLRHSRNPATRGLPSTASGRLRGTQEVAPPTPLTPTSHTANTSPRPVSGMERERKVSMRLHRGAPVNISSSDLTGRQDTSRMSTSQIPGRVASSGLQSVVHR
# Summary of the method: as §1
# MAPK1 = molecular target: T9, MAPK1 (Homo sapiens, UniProt P28482); assay: Liability panel screening by DSF: MAPK1; assay type: binding; settings: DSF, 20 µM, n=2; read-out: Mean ΔTM MAPK1
# T9 construct: made in house
# T9 sequence (P28482 whole entry, species assumed): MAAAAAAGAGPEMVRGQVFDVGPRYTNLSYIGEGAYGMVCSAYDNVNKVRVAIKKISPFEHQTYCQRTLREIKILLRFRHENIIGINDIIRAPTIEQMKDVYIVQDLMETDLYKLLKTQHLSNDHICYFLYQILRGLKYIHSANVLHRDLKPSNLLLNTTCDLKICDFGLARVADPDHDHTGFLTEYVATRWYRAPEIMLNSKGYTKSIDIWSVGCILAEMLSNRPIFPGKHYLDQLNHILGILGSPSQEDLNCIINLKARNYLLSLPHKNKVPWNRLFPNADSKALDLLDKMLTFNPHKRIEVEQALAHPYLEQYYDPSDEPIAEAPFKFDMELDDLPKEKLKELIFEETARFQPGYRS
# Summary of the method: as §1
# TRIM24 = molecular target: T10, TRIM24 (Homo sapiens, UniProt O15164); assay: Liability panel screening by DSF: TRIM24; assay type: binding; settings: DSF, 20 µM, n=2; read-out: Mean ΔTM TRIM24
# T10 construct: This panel comprised ten highly ligandable kinases and bromodomains; made in house
# T10 sequence (O15164 899-1004 limits assumed): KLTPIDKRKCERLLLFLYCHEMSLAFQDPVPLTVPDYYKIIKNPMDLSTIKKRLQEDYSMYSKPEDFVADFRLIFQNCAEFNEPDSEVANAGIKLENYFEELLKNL
# Summary of the method: as §1
# [2] = test system: NF-κB activity in HEK293 NF-κB reporter cells; assay: NF-kB activity assay (GFP reporter, ionomycin/PMA); assay type: cell-based; settings: n=3
# Summary of the method: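 Reporter readout: GFP-expressing cells normalized to confluence, imaged every 90 min across 24 h after ionomycin (100 ng/mL)/PMA (10 ng/mL) stimulation of HEK293 cells pre-treated 4 h with compound (0.1% DMSO); triplicate independent experiments.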
# HEK293T cells [3] = assay: Cytotoxicity: metabolic activity (WST-8 / CCK-8 assay); settings: 1 µM; HEK293T, 24 h; WST-8; normalized to 0.1% DMSO; single replicates
# HEK293T cells [4] = assay: Cytotoxicity: apoptosis induction (caspase-3/7 DEVD fluorogenic DNA dye); settings: 1 µM; HEK293T, 24 h; apoptotic cell count normalized to 0.1% DMSO; single replicates
smiles,measurement,setting,value
COc1cc(/C=C(\C#N)C(=O)Nc2nnc(C(F)(F)F)s2)ccc1OCc1ccc(C(F)(F)F)cc1C(F)(F)F [XCT790],Necrosis induction [NI],HEK293T cells [1],0.92 and 0.82 and 0.84 and 0.79
same,VP16 control [fold reporter gene activity],Gal4-VP16,1.11 fold reporter gene activity and 0.95 fold reporter gene activity and 0.91 fold reporter gene activity
same,ΔTm at 20 µM,ABL1,0.47 °C
same,ΔTm at 20 µM,AURKA,-0.27 °C
same,ΔTm at 20 µM,CDK2,0.38 °C
same,ΔTm at 20 µM,FGFR3,0.83 °C
same,ΔTm at 20 µM,GSK3B,-0.62 °C
same,ΔTm at 20 µM,BRD4,-2.31 °C
same,ΔTm at 20 µM,BRPF1,-1.02 °C
same,ΔTm at 20 µM,CSNK1D,0.0531 °C
same,ΔTm at 20 µM,MAPK1,0.28 °C
same,ΔTm at 20 µM,TRIM24,0.29 °C
same,Mean NFκB response,"[2]; 1 µM, 1,5 h",3626.75 GFP+-cells/confluence ∙ 1000
same,Mean NFκB response,"[2]; 1 µM, 4,5 h",4074.08 GFP+-cells/confluence ∙ 1000
same,Mean NFκB response,"[2]; 1 µM, 7,5 h",7428.22 GFP+-cells/confluence ∙ 1000
same,Mean NFκB response,"[2]; 1 µM, 10,5 h",16505.45 GFP+-cells/confluence ∙ 1000
same,Mean NFκB response,"[2]; 1 µM, 13,5 h",23920.00 GFP+-cells/confluence ∙ 1000
same,Mean NFκB response,"[2]; 1 µM, 16,6 h",29753.33 GFP+-cells/confluence ∙ 1000
same,Mean NFκB response,"[2]; 1 µM, 19,5 h",33970.00 GFP+-cells/confluence ∙ 1000
same,Mean NFκB response,"[2]; 1 µM, 22,5 h",37876.67 GFP+-cells/confluence ∙ 1000
same,Mean NFκB response,"[2]; 1 µM, 3 h",3669.25 GFP+-cells/confluence ∙ 1000
same,Mean NFκB response,"[2]; 1 µM, 6 h",4944.18 GFP+-cells/confluence ∙ 1000
same,Mean NFκB response,"[2]; 1 µM, 9 h",11887.81 GFP+-cells/confluence ∙ 1000
same,Mean NFκB response,"[2]; 1 µM, 12 h",20416.67 GFP+-cells/confluence ∙ 1000
same,Mean NFκB response,"[2]; 1 µM, 15 h",27150.00 GFP+-cells/confluence ∙ 1000
same,Mean NFκB response,"[2]; 1 µM, 18 h",32423.33 GFP+-cells/confluence ∙ 1000
same,Mean NFκB response,"[2]; 1 µM, 21 h",35883.33 GFP+-cells/confluence ∙ 1000
same,Mean NFκB response,"[2]; 1 µM, 24 h",39596.67 GFP+-cells/confluence ∙ 1000
same,Metabolic activity [MA],HEK293T cells [3],1.06 and 0.99 and 0.98 and 1.09 and 1.00 and 1.02 and 1.05 and 1.01
same,Apoptosis induction [AI],HEK293T cells [4],0.85 (2×) and 0.75 and 0.81 and 1.26 and 1.13
